Reference: patent US7323569B2, “7-phenylpyrazolopyridine compounds” (Eisai R&D Management Co., Ltd., priority 2002, dated 2008)
Like-named read-outs stand apart in the source and are kept apart here.

System: CYP3A4
Details: human, hepatocytes, 48 h
Experimental: Evaluation of Drug Metabolizing Enzyme (CYP3A4) Inducibility Using Cryopreserved Human Hepatocyte
Cryopreserved hepatocytes (In Vitro Technology) were rapidly thawed while stirring at 37° C., and then ice-cooled William's Medium E (10% FBS, +PSG) was slowly added to the cells prior to centrifugation at 500 rpm for 5 minutes. After removing the supernatant, the obtained hepatocytes were diluted with ice-cooled William's Medium E to a concentration of 5×10^5 cells/mL, seeded on a 48-well collagen coated plate (BD Biosciences) at 1×10^5 cells/cm^2 and incubated for about 24 hours at 37° C., 5% CO2, after which the medium was changed with Hepato-STIM™ (BD Biosciences) (+EGF, PSG, −FBS) and culture was maintained for another 24 hours under conditions of 37° C., 5% CO2. At approximately 48 hours after the cell seeding, the test compound or rifampicin (SIGMA, positive control) in the form of a diluted solution (using Hepato-STIM™ (+EGF, PSG, −FBS)) was added, hepatocyte were incubated for about 24 hours under conditions of 37° C., 5% CO2, and the culture medium was changed with medium containing a freshly prepared dilution of the test compound or rifampicin prior to further incubation for 24 hours under the same conditions. After incubation, the cells were washed once with PBS, and the total RNA was extracted using a Qiagen RNeasy Mini kit (Qiagen). The cDNA was synthesized by reverse-transcription of extracted using TaqMan Reverse Transcription Reagents (Applied Biosystems). The reverse transcription reaction was carried out using oligo dT as primer, with treatment at 25° C. for 10 minutes followed by treatment at 48° C. for 60 minutes, after which the reverse transcriptase was inactivated by treatment at 95° C. for 10 minutes. The obtained cDNA was supplied to a PCR using a Gene Amp PCR system 9700. The obtained cDNA was quantitated using an SYBR Green PCR Core Reagents kit (Applied Biosystems), and the human CYP3A4 and GAPDH mRNA was quantitated using an ABI7700 (Applied Biosystems). The abbreviations used in the test example are explained below. • FBS: Fetal Bovine Serum • PSG: Penicillin (100 U/ml), Streptomycin (100 μg/ml), Glutamine (2 mM) • EGF: Epidermal Growth Factor • GAPDH: Glyceraldehyde-3-Phosphate Dehydrogenase
(2) Calculation of CYP3A4 Inducibility
Next, for comparison of each test run, the differences between the value of the CYP3A4 mRNA amount divided by the GAPDH mRNA amount with addition of the test compound at various concentrations and with addition of the negative control were calculated as percentages, with 100% being defined as the difference between the values of the CYP3A4 mRNA amount divided by the GAPDH mRNA amount for the positive control and negative control, to determine the inducibility of each test compound.

| SMILES | CYP3A4 inducibility, % of Positive Control (0.03 μM) [%] | CYP3A4 inducibility, % of Positive Control (0.1 μM) [%] | CYP3A4 inducibility, % of Positive Control (0.3 μM) [%] | CYP3A4 inducibility (1 μM) [%] | CYP3A4 inducibility, % of Positive Control (1 μM) [%] | CYP3A4 inducibility, % of Positive Control (3 μM) [%] | CYP3A4 inducibility, % of Positive Control (10 μM) [%] |
| --- | --- | --- | --- | --- | --- | --- | --- |
| COCc1cc(OC)c(-c2cccc3c(N(CC4CCOCC4)CC4CC4)c(SC)nn23)c(OC)c1 [Example 59, N-Cyclopropylmethyl-N-[7-[2,6-dimethoxy-4-(methoxymethyl)phenyl]-2-(methylsulfanyl)pyrazolo[1,5-a]pyridin-3-yl]-N-tetrahydro-2H-4-pyranylmethylamine] | 2 | 3 | 11 | ≤ 40 | 25 | 49 | 59 |
| CCOCc1cc(OC)c(-c2cccc3c(N(CC4CCOCC4)CC4CC4)c(CC)nn23)c(OC)c1 [Example 3, N-Cyclopropylmethyl-N-7-[4-(ethoxymethyl)-2,6-dimethoxyphenyl]-2-ethylpyrazolo[1,5-a]pyridin-3-yl-N-tetrahydro-2H-4-pyranylmethylamine] | 3 | 3 | 7 | ≤ 40 | 25 | 23 | 34 |
| CCc1nn2c(-c3c(OC)cc(COC)cc3OC)cccc2c1N(CC1CCOCC1)CC1CC1 [Example 1, N-Cyclopropylmethyl-N-7-[2,6-dimethoxy-4-(methoxymethyl)phenyl]-2-ethylpyrazolo[1,5-a]pyridin-3-yl-N-tetrahydro-2H-4-pyranylmethylamine] | 6 | 7 | 12 | ≤ 40 | 20 | 36 | 65 |
